Reference: the supplement of paper PMC4862054

How the values were obtained:
Assay in all cases: normalised response (% of control), CellTiter-Glo; higher = more viable cells (100 = DMSO, 0 = benzethonium chloride kill control)
Settings in all cases: incubation time: 72 h
BT-474 = system: BT-474
Procedure, shortened: (§1)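 Breast cancer cell lines, seeded at 20 µl suspension per well, were incubated for 72 h in 384-well plates containing compound at 5 concentrations. These concentrations rose in 10-fold steps over a 10,000-fold range set for each compound. CellTox Green fluorescence (485/520 nm) was read, then CellTiter-Glo luminescence after 10 min at room temperature, and each plate was normalised to 0.1 % DMSO (100) and a positive kill control (0). Values are normalised signals, each at one concentration.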

BT-549 = system: BT-549
Procedure, shortened: as §1

CAL-120 = system: CAL-120
Procedure, shortened: as §1

CAL-148 = system: CAL-148
Procedure, shortened: as §1

CAL-51 = system: CAL-51
Procedure, shortened: as §1

CAL-85-1 = system: CAL-85-1
Procedure, shortened: as §1

DU-4475 = system: DU-4475
Procedure, shortened: as §1

HCC1143 = system: HCC1143
Procedure, shortened: as §1

HCC1599 = system: HCC1599
Procedure, shortened: as §1

HCC1937 = system: HCC1937
Procedure, shortened: as §1

HDQ-P1 = system: HDQ-P1
Procedure, shortened: as §1

Hs578T = system: Hs578T
Procedure, shortened: as §1

MCF-10A = system: MCF-10A
Procedure, shortened: as §1

MDA-MB-231 = system: MDA-MB-231
Procedure, shortened: as §1

MDA-MB-436 = system: MDA-MB-436
Procedure, shortened: as §1

MDA-MB-453 = system: MDA-MB-453
Procedure, shortened: as §1

MDA-MB-468 = system: MDA-MB-468
Procedure, shortened: as §1

MFM-223 = system: MFM-223
Procedure, shortened: as §1

SK-BR-3 = system: SK-BR-3
Procedure, shortened: as §1

SMILES | normalised response (BT-474) | normalised response (BT-549) | normalised response (CAL-120) | normalised response (CAL-148) | normalised response (CAL-51) | normalised response (CAL-85-1) | normalised response (DU-4475) | normalised response (HCC1143) | normalised response (HCC1599) | normalised response (HCC1937) | normalised response (HDQ-P1) | normalised response (Hs578T) | normalised response (MCF-10A) | normalised response (MDA-MB-231) | normalised response (MDA-MB-436) | normalised response (MDA-MB-453) | normalised response (MDA-MB-468) | normalised response (MFM-223) | normalised response (SK-BR-3)
COc1ccc(-c2cc3c(C)nc(N)nc3n([C@H]3CC[C@H](OCCO)CC3)c2=O)cn1 (1 nM) | 93.4% | 101% | 91.1% | 82.3% | 112% | 93.8% | 90.7% | 88.6% | 104% | 96.2% | 89.5% | 96.8% | 84.8% | 96.5% | 83.5% | 97.4% | 97% | 85.4% | 80.9%
Cc1c(Cn2c(C)nc3c(C(=O)O)cc(N4CCOCC4)cc32)cccc1C(F)(F)F (1 nM) | 95.9% | 99.8% | 101% | 101% | 104% | 96.9% | 99.1% | 108% | 73.8% | 96% | 103% | 98.5% | 113% | 107% | 95.8% | 100% | 97.5% | 104% | 106%
COc1ccc(-c2cc3c(C)nc(N)nc3n([C@H]3CC[C@H](OCCO)CC3)c2=O)cn1 (10 nM) | 88.8% | 89.6% | 92.3% | 87.8% | 82.8% | 90.8% | 93.2% | 96.5% | 89.3% | 86.2% | 87.2% | 94.8% | 79.8% | 90.7% | 85.4% | 83.5% | 82.6% | 88.9% | 67.2%
Cc1c(Cn2c(C)nc3c(C(=O)O)cc(N4CCOCC4)cc32)cccc1C(F)(F)F (10 nM) | 101% | 94.8% | 99.5% | 112% | 79.4% | 99.5% | 102% | 104% | 118% | 98.8% | 101% | 105% | 118% | 107% | 98.9% | 100% | 105% | 104% | 100%
CC/C(=C(\c1ccc(O)cc1)c1ccc(OCCN(C)C)cc1)c1ccccc1 [4-hydroxytamoxifen] (1 nM) | 101% | 107% | 98.6% | 102% | 91.2% | 100% | 99.4% | 95% | 96% | 99.6% | 97.7% | 108% | 101% | 96.6% | 103% | 107% | 98.8% | 101% | 107%
CC/C(=C(\c1ccc(O)cc1)c1ccc(OCCN(C)C)cc1)c1ccccc1 [4-hydroxytamoxifen] (10 nM) | 96.7% | 97.1% | 98.3% | 110% | 88.4% | 97% | 103% | 101% | 93.5% | 97% | 95.7% | 102% | 109% | 96.8% | 90% | 112% | 108% | 104% | 98.3%
CCCCC/C=C/C=C1/C(=O)C=C[C@@H]1C/C=C\CCCC(=O)O [15D-PGJ2] (0.08 nM) | 102% | 98.4% | 102% | 108% | 96.8% | 95.3% | 96.6% | 102% | 101% | 94.5% | 104% | 99.6% | 103% | 106% | 102% | 111% | 95.8% | 103% | 106%
O=C(Nc1c[nH]nc1-c1nc2ccc(CN3CCOCC3)cc2[nH]1)NC1CC1 [AT9283] (1 nM) | 95.7% | 97.3% | 93.4% | 94.5% | 103% | 98.7% | 102% | 102% | 101% | 102% | 103% | 98.7% | 101% | 102% | 103% | 98.6% | 97.5% | 103% | –
CCC/C=C/C=C/C(=O)O[C@H]1/C(=C/C(=O)OC)C[C@H]2C[C@H]([C@@H](C)O)OC(=O)C[C@H](O)C[C@@H]3C[C@H](OC(C)=O)C(C)(C)[C@](O)(C[C@@H]4C/C(=C/C(=O)OC)C[C@H](/C=C/C(C)(C)[C@]1(O)O2)O4)O3 [Bryostatin 1] (0.1 nM) | 103% | 95.8% | 91.1% | 115% | 119% | 98.2% | 97% | 101% | 116% | 99% | 91.5% | 95.5% | 109% | 103% | 107% | 97.7% | 94.3% | 105% | –
CO[C@@H](C(=O)N1Cc2[nH]nc(NC(=O)c3ccc(N4CCN(C)CC4)cc3)c2C1)c1ccccc1 [Danusertib] (10 nM) | 102% | 99.7% | 93.4% | 95.7% | 113% | 94.9% | 102% | 95.7% | 98.1% | 93.8% | 97.9% | 99.2% | 103% | 96.6% | 105% | 103% | 87.1% | 103% | –
Cc1nc(Nc2ncc(C(=O)Nc3c(C)cccc3Cl)s2)cc(N2CCN(CCO)CC2)n1 [Dasatinib] (1 nM) | 93.5% | 103% | 98.9% | 93.7% | 106% | 101% | 96.4% | 97.9% | 115% | 99.6% | 93.5% | 103% | 90% | 87.9% | 94.5% | 101% | 95.6% | 97.7% | –
O=S(=O)(c1cccc2cnccc12)N1CCCNCC1 [Fasudil] (50 nM) | 97.8% | 101% | 94.3% | 102% | 117% | 97% | 104% | 102% | 98.5% | 99.4% | 96.6% | 94.9% | 104% | 99.9% | 106% | 104% | 101% | 99.3% | –
Cc1cccc(-c2nn3c(c2-c2ccnc4ccc(C(N)=O)cc24)CCC3)n1 [Galunisertib] (1 nM) | 109% | 102% | 101% | 123% | 92.5% | 99.5% | 107% | 111% | 103% | 99% | 102% | 103% | 102% | 105% | 108% | 115% | 104% | 107% | –
C[C@]12O[C@H](C[C@]1(O)CO)n1c3ccccc3c3c4c(c5c6ccccc6n2c5c31)CNC4=O [Lestaurtinib] (1 nM) | 104% | 97.3% | 93.9% | 100% | 133% | 104% | 97.7% | 102% | 90.8% | 98.9% | 95.4% | 101% | 96.6% | 99.8% | 100% | 94.3% | 102% | 101% | –
Nc1ccccc1NC(=O)c1ccc(CNc2nccc(-c3cccnc3)n2)cc1 [Mocetinostat] (10 nM) | 98.4% | 98.3% | 97% | 98.1% | 129% | 95.7% | 105% | 97.6% | 94.3% | 104% | 110% | 103% | 106% | 103% | 99.1% | 105% | 101% | 100% | –
Cc1ccc(Nc2nccc(N(C)c3ccc4c(C)n(C)nc4c3)n2)cc1S(N)(=O)=O [Pazopanib] (10 nM) | 98.2% | 93.9% | 91.9% | 104% | 82.8% | 100% | 107% | 102% | 100% | 100% | 97.2% | 94.8% | 97.2% | 98.2% | 107% | 109% | 104% | 98% | –
CS(=O)(=O)N1CCN(Cc2cc3nc(-c4cccc5[nH]ncc45)nc(N4CCOCC4)c3s2)CC1 [Pictilisib] (1 nM) | 92.7% | 104% | 93.9% | 93.1% | 102% | 119% | 104% | – | 96.8% | 95% | 97.3% | 99.7% | 102% | 101% | 91.1% | 112% | 99.5% | 104% | 107%
O=C(NC[C@H](O)CO)c1ccncc1Nc1ccc(I)cc1F [Pimasertib] (10 nM) | 102% | 91.4% | 103% | 90.8% | 124% | 87.8% | 83.9% | 94.2% | 105% | 102% | 81.1% | 92.2% | 66.6% | 97.6% | 107% | 99.7% | 91.9% | 99.2% | –
c1cc(CN2CCCNCCNCCCNCC2)ccc1CN1CCCNCCNCCCNCC1 [Plerixafor] (10 nM) | 97.2% | 99.6% | 96.2% | 91.1% | 82.7% | 93.1% | 91.1% | 105% | 95.2% | 102% | 103% | 97.7% | 81.5% | 99% | 97.3% | 81.9% | 94.1% | 88.6% | –
CNC(=O)c1cc(Oc2ccc(NC(=O)Nc3ccc(Cl)c(C(F)(F)F)c3)cc2)ccn1 [Sorafenib] (1 nM) | 104% | 94.7% | 98.2% | 114% | 119% | 104% | 103% | 100% | 109% | 101% | 102% | 102% | 105% | 102% | 96.4% | 93.8% | 106% | 107% | –
CC[C@@]1(O)C(=O)OCc2c1cc1n(c2=O)Cc2cc3c(CN(C)C)c(O)ccc3nc2-1 [Topotecan] (10 nM) | 98.2% | 90.3% | 96.1% | 103% | 91.9% | 95.8% | 95.4% | 93.9% | 93.2% | 95.8% | 98.4% | 100% | 92.7% | 94.1% | 94.4% | 104% | 97.6% | 99.9% | –
